Assay results taken from ChEMBL document CHEMBL3832761, “MMV Pathogen Box Bioactivity Data” (2017).
In brackets after ≈: the same amount, converted by molar mass.

Columns and labels:
Assay type in all cases: functional
[1] = system: Mycobacterium tuberculosis; assay: AntiMycobacterium tuberculosis activity Non-Replicating form: Average MIC90 (uM)
[2] = system: Mycobacterium tuberculosis; assay: AntiMycobacterium tuberculosis activity 1-week GAST/Fe MIC (uM); conditions: 168 h
[3] = system: Mycobacterium tuberculosis; assay: AntiMycobacterium tuberculosis activity 2-week GAST/Fe MIC (uM); conditions: 336 h
[4] = system: Mycobacterium tuberculosis; assay: AntiMycobacterium tuberculosis activity 1-week 7H9/ADC/Tw MIC (uM); conditions: 168 h
[5] = system: Mycobacterium tuberculosis; assay: AntiMycobacterium tuberculosis activity 2-week 7H9/ADC/Tw MIC (uM); conditions: 336 h
[6] = system: Mycobacterium tuberculosis; assay: AntiMycobacterium tuberculosis activity 2-week Alamar Blue 7H9/ADC/Tw MIC (uM); conditions: 336 h
[7] = system: Mycobacterium tuberculosis; assay: AntiMycobacterium tuberculosis activity 1-week 7H9/glucose/BSA/Tx MIC (uM); conditions: 168 h
[8] = system: Mycobacterium tuberculosis; assay: AntiMycobacterium tuberculosis activity 2-week 7H9/glucose/BSA/Tx MIC (uM); conditions: 336 h
[9] = system: Mycobacterium tuberculosis; assay: AntiMycobacterium tuberculosis activity 1-week 7H9/DPPC/cholesterol/BSA/Tx MIC (uM); conditions: 168 h
[10] = system: Mycobacterium tuberculosis; assay: AntiMycobacterium tuberculosis activity 2-week 7H9/DPPC/cholesterol/BSA/Tx MIC (uM); conditions: 336 h
[11] = system: Mycobacterium tuberculosis; assay: AntiMycobacterium tuberculosis activity 1-week 7H9/cholesterol/BSA/Tx MIC (uM); conditions: 168 h
[12] = system: Mycobacterium tuberculosis; assay: AntiMycobacterium tuberculosis activity 2-week Alamar Blue 7H9/cholesterol/BSA/Tx MIC (uM); conditions: 336 h
[13] = system: Mycobacterium tuberculosis; assay: (§1) AntiMycobacterium tuberculosis activity day 10 in 7H9/2.5mM butyrate/pH6/0.1mM nitrite MIC90 (uM); conditions: 240 h
[14] = system: Mycobacterium tuberculosis; assay: AntiMycobacterium tuberculosis activity day 21 in 7H9/2.5mM butyrate/pH6/0.1mM nitrite MIC90 (uM); conditions: 504 h
[15] = system: Mycobacterium tuberculosis; assay: as §1; conditions: 240 h; remark: listed apart in the source
[16] = system: Mycobacterium tuberculosis; assay: AntiMycobacterium tuberculosis activity day 21 MIC99 in 7H9/2.5mM butyrate/pH6/0.1mM nitrite MIC99 (uM); conditions: 504 h
[17] = system: Mycobacterium tuberculosis; assay: AntiMycobacterium tuberculosis activity Replicating form: Average MIC90 (uM)
HepG2 = assay: HepG2 CC50 (uM) Cytotoxicity; conditions: Homo sapiens

SMILES	MIC90 [1] [µM]	MIC [2] [µM]	MIC [3] [µM]	MIC [4] [µM]	MIC [5] [µM]	MIC [6] [µM]	MIC [7] [µM]	MIC [8] [µM]	MIC [9] [µM]	MIC [10] [µM]	MIC [11] [µM]	MIC [12] [µM]	MIC90 [13] [µM]	MIC90 [14] [µM]	MIC90 [15] [µM]	MIC [16] [µM]	MIC90 [17] [µM]	CC50 (HepG2) [µM]
O=C(NC1=NCCS1)c1sc2cc(F)ccc2c1Cl	39.3 (≈ 12.4 µg/mL)	0.6 (≈ 0.189 µg/mL)	1.2 (≈ 0.378 µg/mL)	> 50	> 50	9.4 (≈ 2.96 µg/mL)	> 50	> 50	6.25 (≈ 1.97 µg/mL)	> 50	3.13 (≈ 0.985 µg/mL)	3.13 (≈ 0.985 µg/mL)	3.12 (≈ 0.982 µg/mL)	12.5 (≈ 3.93 µg/mL)	3.12 (≈ 0.982 µg/mL)	12.5 (≈ 3.93 µg/mL)	> 100	> 100
O=C(C1CCN(c2nnc(-n3cccc3)s2)CC1)N1CCC(Cc2ccccc2)CC1	0.8 (≈ 0.348 µg/mL)	0.02 (≈ 0.00871 µg/mL)	0.02 (≈ 0.00871 µg/mL)	0.1 (≈ 0.0436 µg/mL)	0.07 (≈ 0.0305 µg/mL)	0.07 (≈ 0.0305 µg/mL)	0.1 (≈ 0.0436 µg/mL)	0.1 (≈ 0.0436 µg/mL)	0.02 (≈ 0.00871 µg/mL)	0.04 (≈ 0.0174 µg/mL)	0.02 (≈ 0.00871 µg/mL)	0.05 (≈ 0.0218 µg/mL)	0.19 (≈ 0.0828 µg/mL)	0.19 (≈ 0.0828 µg/mL)	0.78 (≈ 0.34 µg/mL)	0.78 (≈ 0.34 µg/mL)	0.94 (≈ 0.409 µg/mL)	> 100
CCCCc1ccc(C(=O)Nc2nccc3ccccc23)nc1	61 (≈ 18.6 µg/mL)	0.78 (≈ 0.238 µg/mL)	1.56 (≈ 0.476 µg/mL)	4.7 (≈ 1.44 µg/mL)	6.25 (≈ 1.91 µg/mL)	6.25 (≈ 1.91 µg/mL)	6.25 (≈ 1.91 µg/mL)	9.4 (≈ 2.87 µg/mL)	2.3 (≈ 0.702 µg/mL)	4.7 (≈ 1.44 µg/mL)	0.78 (≈ 0.238 µg/mL)	1.56 (≈ 0.476 µg/mL)	3.12 (≈ 0.953 µg/mL)	6.25 (≈ 1.91 µg/mL)	3.12 (≈ 0.953 µg/mL)	6.25 (≈ 1.91 µg/mL)	39.1 (≈ 11.9 µg/mL)	73.8
CCc1nc2ccc(Cl)cn2c1C(=O)NCc1ccc(N2CCC(c3ccc(OC(F)(F)F)cc3)CC2)cc1 [TELACEBEC]	0.01 (≈ 0.00557 µg/mL)	< 0.02	< 0.02	> 50	> 50	0.02 (≈ 0.0111 µg/mL)	0.1 (≈ 0.0557 µg/mL)	> 50	< 0.02	0.02 (≈ 0.0111 µg/mL)	< 0.02	0.02 (≈ 0.0111 µg/mL)	≤ 0.04	≤ 0.04	≤ 0.04	≤ 0.04	0.01 (≈ 0.00557 µg/mL)	> 100
O=C(Nc1nc(-c2ccccn2)cs1)c1cncn1-c1ccccc1	32.5 (≈ 11.3 µg/mL)	1.56 (≈ 0.542 µg/mL)	3.13 (≈ 1.09 µg/mL)	19 (≈ 6.6 µg/mL)	25 (≈ 8.69 µg/mL)	19 (≈ 6.6 µg/mL)	19 (≈ 6.6 µg/mL)	25 (≈ 8.69 µg/mL)	9.4 (≈ 3.27 µg/mL)	25 (≈ 8.69 µg/mL)	9.4 (≈ 3.27 µg/mL)	12.5 (≈ 4.34 µg/mL)	6.25 (≈ 2.17 µg/mL)	12.5 (≈ 4.34 µg/mL)	> 50	> 50	82.7 (≈ 28.7 µg/mL)	3.8
C[C@]1(COc2ccc(N3CCC(Oc4ccc(OC(F)(F)F)cc4)CC3)cc2)Cn2cc([N+](=O)[O-])nc2O1	0.2 (≈ 0.107 µg/mL)	0.1 (≈ 0.0534 µg/mL)	0.15 (≈ 0.0802 µg/mL)	0.07 (≈ 0.0374 µg/mL)	0.15 (≈ 0.0802 µg/mL)	0.15 (≈ 0.0802 µg/mL)	0.2 (≈ 0.107 µg/mL)	0.05 (≈ 0.0267 µg/mL)	< 0.02	0.1 (≈ 0.0534 µg/mL)	0.05 (≈ 0.0267 µg/mL)	0.6 (≈ 0.321 µg/mL)	0.39 (≈ 0.208 µg/mL)	12.5 (≈ 6.68 µg/mL)	> 50	> 50	0.08 (≈ 0.0428 µg/mL)	72.5
COc1ccc(C2(C(=O)Nc3ccc(Br)cc3)CCCC2)cc1	46.5 (≈ 17.4 µg/mL)	19 (≈ 7.11 µg/mL)	19 (≈ 7.11 µg/mL)	19 (≈ 7.11 µg/mL)	12.5 (≈ 4.68 µg/mL)	12.5 (≈ 4.68 µg/mL)	12.5 (≈ 4.68 µg/mL)	12.5 (≈ 4.68 µg/mL)	12.5 (≈ 4.68 µg/mL)	9.4 (≈ 3.52 µg/mL)	9.4 (≈ 3.52 µg/mL)	12.5 (≈ 4.68 µg/mL)	50 (≈ 18.7 µg/mL)	50 (≈ 18.7 µg/mL)	> 50	50 (≈ 18.7 µg/mL)	26.5 (≈ 9.93 µg/mL)	> 100
COc1cccc(OC)c1C(=O)Nc1ccc(Cl)c(-c2nc3ccccc3s2)c1	55.1 (≈ 23.4 µg/mL)	6.25 (≈ 2.66 µg/mL)	9.4 (≈ 3.99 µg/mL)	37 (≈ 15.7 µg/mL)	37 (≈ 15.7 µg/mL)	37 (≈ 15.7 µg/mL)	25 (≈ 10.6 µg/mL)	25 (≈ 10.6 µg/mL)	12.5 (≈ 5.31 µg/mL)	12.5 (≈ 5.31 µg/mL)	12.5 (≈ 5.31 µg/mL)	19 (≈ 8.07 µg/mL)	> 50	> 50	> 50	> 50	26.1 (≈ 11.1 µg/mL)	> 100
CCc1ccc(S(=O)(=O)Nc2cc(CN3CCN(CCC(C)C)CC3)ccc2C)cc1	89.8 (≈ 39.8 µg/mL)	19 (≈ 8.43 µg/mL)	25 (≈ 11.1 µg/mL)	25 (≈ 11.1 µg/mL)	25 (≈ 11.1 µg/mL)	25 (≈ 11.1 µg/mL)	25 (≈ 11.1 µg/mL)	25 (≈ 11.1 µg/mL)	12.5 (≈ 5.55 µg/mL)	12.5 (≈ 5.55 µg/mL)	12.5 (≈ 5.55 µg/mL)	12.5 (≈ 5.55 µg/mL)	> 50	50 (≈ 22.2 µg/mL)	> 50	> 50	45.6 (≈ 20.2 µg/mL)	27.4
